Source: patent US20240277693A1, “A PHARMACEUTICAL PRODUCT CONTAINING TASQUINIMOD AND A METHOD FOR ASSESSING THE PURITY OF SAID PRODUCT” (ACTIVE BIOTECH AB, priority 2021, published 2024)

Assays:
Format in all cases: physicochemical
[1] = Drug product stability studies (general observations)
From the text: In a drug product, compound I is formed with compound II from hydrolysis of tasquinimod. […] Compound II is further decarboxylated to form compound III.
Compound III is the decarboxylated species formed from the degradation of compound II.
The mechanism for formation of compound IV in a drug product is unknown.

[2] = Stability testing of capsules at 25° C./60% RH in water impermeable blister pack
From the text: (§1) In some embodiments, the method disclosed herein comprises storing (keeping) a sample of the pharmaceutical product for a period of time, preferably under selected conditions of temperature and humidity. The amount (or concentration) of tasquinimod and of at least one of compounds I, II, III and IV in the sample may preferably be determined at the beginning or before the storage period and at the end of the storage period. The selected storage conditions may include a temperature in the range of, for example, 20° C. to 40° C., and a relative humidity in the surrounding atmosphere in the range of, for example, 30% to 75%; e.g. 25° C. and 60% RH, or 30° C. and 65% RH, or 35° C. and 70% RH, or 40° C. and 75% RH. The storage period may extend over a time period in the range of, for example, several weeks to several years. For example, the stability testing period (“storage period”) may be 2 weeks, 3 weeks, 1 month, 2 months, 3 months, 4 months, 5 months, 6 months, 9 months, 1 year, 18 months, 2 years, 3 years, 4 years or even 5 years or longer. A shorter storage period may be selected by use of higher storage temperature and/or higher relative humidity (RH). The total amount of a tasquinimod decomposition product in the sample at the end of the storage period may be determined by, for example, HPLC.
The batch of capsules manufactured in Example 19 was assessed by determining the amount of tasquinimod and the amount of each one of compounds I, II, III and IV in a sample of the capsules at the end of a 3-month stability testing, whereby the criterion for approving the batch was that the capsules of the sample, at the end of the 3-month stability testing, contain a total amount of compounds I-IV of not more than 5.0% w/w, relative to the amount of tasquinimod in the capsules. The stability testing consisted of keeping the capsules, in a water impermeable blister pack, at 25° C./60% RH. At the end of the stability testing, the capsules contained 0.06% w/w of compound I, less than 0.05% w/w of compound II, 0.10% of compound III and less than 0.05% w/w of compound IV, relative to the amount of tasquinimod (determined to be 0.246 mg/capsule), viz. in total less than 0.26% w/w of compounds I-IV relative to the amount of tasquinimod. Therefore, according to the selected criterion for approval, the batch of capsules was determined to be suitable for distribution.
(§2) The obtained batch of capsules was subjected to multiple assessments, viz. a first assessment comprising determining the amount of tasquinimod and the amount of compounds I, II, III and IV in a sample of the capsules directly after manufacturing, whereby the selected criterion for approving the batch for distribution was that the capsules of the sample, in a water impermeable blister pack, contain not more than in total 5% w/w of compounds I-IV relative to the amount of tasquinimod, followed by eight further, independent assessments, by determining the amount of tasquinimod and the amount of each one of compounds I, II, III and IV in a sample of the capsules at the end of a period of stability testing (by keeping the capsules, in a water impermeable blister pack, at 25° C./60% RH) of 3, 6, 9, 12, 18, 24, 36 and 48 months, respectively, whereby each time the criterion for approving the batch was that the capsules of the sample, at the end of each period of stability testing, contain a total amount of compounds I-IV of not more than 5.0% w/w, relative to the amount of tasquinimod in the capsules.

[3] = Assessment of capsules after manufacture: amount of tasquinimod and of decomposition products; conditions: 0 months (after manufacturing)
From the text: as §1
The obtained batch of capsules was assessed by determining the amount of tasquinimod and the amount of compound III in a sample of the capsules. The selected criterion for approving the batch was that the capsules of the sample contain not more than 1.0% w/w of compound III relative to the amount of tasquinimod. […] Therefore, according to the selected criterion for approval, the batch of capsules was determined to be suitable for distribution.
The obtained batch of capsules was assessed by determining the amount of tasquinimod and the amount of compounds I, II, III and IV in a sample of the capsules. The selected criterion for approving the batch was that the capsules of the sample contain not more than in total 5% w/w of compounds I-IV relative to the amount of tasquinimod. […] Therefore, according to the selected criterion for approval, the batch of capsules was determined to be suitable for distribution.
as §2

[4] = 0.25 mg capsules of Example 19, 18 months
[5] = 0.25 mg capsules of Example 19, 24 months
[6] = 0.25 mg capsules of Example 19, 36 months
[7] = 0.25 mg capsules of Example 19, 48 months
[8] = 0.5 mg capsules of Example 28, 3 months
[9] = 0.5 mg capsules of Example 28, 6 months
[10] = 0.5 mg capsules of Example 28, 9 months
[11] = 0.5 mg capsules of Example 28, 12 months
[12] = 0.5 mg capsules of Example 28, 18 months
[13] = 0.5 mg capsules of Example 28, 24 months
[14] = 0.5 mg capsules of Example 28, 36 months
[15] = 0.5 mg capsules of Example 28, 48 months
[16] = 1.0 mg capsules of Example 29, 3 months
[17] = 1.0 mg capsules of Example 29, 6 months
[18] = 1.0 mg capsules of Example 29, 9 months
[19] = 1.0 mg capsules of Example 29, 12 months
[20] = 1.0 mg capsules of Example 29, 18 months
[21] = 1.0 mg capsules of Example 29, 24 months
[22] = 1.0 mg capsules of Example 29, 36 months
[23] = 1.0 mg capsules of Example 29, 48 months

Compound | change of the amount of the compound in tasquinimod drug product on storage [1] | amount of decomposition product (each of compounds I-IV) in capsules, relative to the amount of tasquinimod [2, 4] [% w/w] | amount of decomposition product (each of compounds I-IV) in capsules, relative to the amount of tasquinimod [2, 5] [% w/w] | amount of decomposition product (each of compounds I-IV) in capsules, relative to the amount of tasquinimod [2, 6] [% w/w] | amount of decomposition product (each of compounds I-IV) in capsules, relative to the amount of tasquinimod [2, 7] [% w/w] | Decomposition products (% w/w), relative to the amount of tasquinimod in capsule [2, 8] [% w/w] | Decomposition products (% w/w), relative to the amount of tasquinimod in capsule [2, 9] [% w/w] | Decomposition products (% w/w), relative to the amount of tasquinimod in capsule [2, 10] [% w/w] | Decomposition products (% w/w), relative to the amount of tasquinimod in capsule [2, 11] [% w/w] | Decomposition products (% w/w), relative to the amount of tasquinimod in capsule [2, 12] [% w/w] | Decomposition products (% w/w), relative to the amount of tasquinimod in capsule [2, 13] [% w/w] | Decomposition products (% w/w), relative to the amount of tasquinimod in capsule [2, 14] [% w/w] | Decomposition products (% w/w), relative to the amount of tasquinimod in capsule [2, 15] [% w/w] | Decomposition products (% w/w), relative to the amount of tasquinimod in capsule [2, 16] [% w/w] | Decomposition products (% w/w), relative to the amount of tasquinimod in capsule [2, 17] [% w/w] | Decomposition products (% w/w), relative to the amount of tasquinimod in capsule [2, 18] [% w/w] | Decomposition products (% w/w), relative to the amount of tasquinimod in capsule [2, 19] [% w/w] | Decomposition products (% w/w), relative to the amount of tasquinimod in capsule [2, 20] [% w/w] | Decomposition products (% w/w), relative to the amount of tasquinimod in capsule [2, 21] [% w/w] | Decomposition products (% w/w), relative to the amount of tasquinimod in capsule [2, 22] [% w/w] | other results
COc1cccc2c1c(O)c(Cc1c(O)c3c(OC)cccc3n(C)c1=O)c(=O)n2C [Compound IV, 3,3′-methylenebis(4-hydroxy-5-methoxy-1-methylquinolin-2(1H)-one)] | increase under accelerated conditions | 0.07 | 0.10 | 0.15 | 0.19 | <0.05 | <0.05 | <0.05 | <0.05 | <0.05 | 0.06 | 0.09 | 0.11 | <0.05 | <0.05 | <0.05 | <0.05 | <0.05 | <0.05 | <0.05 | Decomposition products (% w/w), relative to the amount of tasquinimod in capsule [2, 23]: <0.05 % w/w; Decomposition products (% w/w), relative to the amount of tasquinimod in capsule ([3]; 0.5 mg capsules of Example 28): <0.05 % w/w; Decomposition products (% w/w), relative to the amount of tasquinimod in capsule ([3]; 1.0 mg capsules of Example 29): <0.05 % w/w
CNc1ccc(C(F)(F)F)cc1 [Compound I, N-methyl-4-(trifluoromethyl)aniline] | increase under any storage conditions | 0.10 | 0.13 | 0.16 | 0.16 | <0.05 | 0.05 | 0.06 | 0.07 | 0.06 | 0.07 | 0.07 | 0.08 | <0.05 | <0.05 | <0.05 | <0.05 | <0.05 | <0.05 | <0.05 | amount of decomposition product (each of compounds I-IV) in capsules, relative to the amount of tasquinimod ([2]; 0.25 mg capsules of Example 19, 3 months): 0.06 % w/w; amount of decomposition product (each of compounds I-IV) in capsules, relative to the amount of tasquinimod ([2]; 0.25 mg capsules of Example 19, 6 months): 0.08 % w/w; amount of decomposition product (each of compounds I-IV) in capsules, relative to the amount of tasquinimod ([2]; 0.25 mg capsules of Example 19, 9 months): 0.12 % w/w; amount of decomposition product (each of compounds I-IV) in capsules, relative to the amount of tasquinimod ([2]; 0.25 mg capsules of Example 19, 12 months): 0.11 % w/w; Decomposition products (% w/w), relative to the amount of tasquinimod in capsule [2, 23]: <0.05 % w/w; Decomposition products (% w/w), relative to the amount of tasquinimod in capsule ([3]; 0.5 mg capsules of Example 28): <0.05 % w/w; Decomposition products (% w/w), relative to the amount of tasquinimod in capsule ([3]; 1.0 mg capsules of Example 29): <0.05 % w/w
